Key:
in vivo = settings: mouse, iv
dd strain mice = settings: mouse, in vivo, iv

C[C@@H]1C[C@H]2[C@@H]3CCC4=CC(=O)C=C[C@]4(C)[C@@]3(F)[C@@H](O)C[C@]2(C)[C@@]1(O)C(=O)COP(=O)(O)O [dexamethasone phosphate]
LD50 (in vivo): 140 mg/kg | LD50 (dd strain mice): 115 mg/kg

CCCCCCCCCCCCCCCC(=O)OCC(=O)[C@@]1(O)[C@H](C)C[C@H]2[C@@H]3CCC4=CC(=O)C=C[C@]4(C)[C@@]3(F)[C@@H](O)C[C@@]21C [dexamethasone palmitate]
LD50 (in vivo): 580 mg/kg | LD50 (dd strain mice): 420 mg/kg

Reference: patent publication US4340594A, “Fat emulsion containing steroid” (The Green Cross Corporation, priority 1980, dated 1982)
